Experimental findings from patent US10154992B2, “Compounds and methods for treating HIV infection” (THE REGENTS OF THE UNIVERSITY OF CALIFORNIA, priority 2016, dated 2018) are described below.

Read-outs that look alike come from different tables or passages of the source.

Holding throughout (assay type): cell-based
The test system of series [1] is HIV-1 provirus in U1 cells. Put plainly: U1 activation (latency) assay, p24 ELISA. The method, then:
U1 activation assay. U1 cells obtained from the AIDS Research and Reference Reagent Program were maintained under standard culture conditions in RPMI 1640 supplemented with 10% fetal bovine serum (heat inactivated), 2 mM L-glutamine, 100U/mL penicillin and 100 μg/mL streptomycin. U1 cells contain an integrated copy of a phorbol ester inducible HIV-1 provirus and addition of phytohemagglutinin (PHA) to the cell culture was used to induce virus production. On the day of the assay, the U1 cells were activated with PHA and 250,000 cells were plated in 96-well plates. Test compounds were diluted in media and applied to the cells at final concentrations from 1 to 10,000 nM. Cultures were incubated for 3 days and supernatants harvested. Cell-free virus production was measured by p24 ELISA on culture supernatant. Compound toxicity was determined by MTT cell-viability assay in parallel assays.
On the technique in general: An ELISA detects its analyte on a solid surface through an enzyme-linked reagent.

Series [2] has as its system Tat-hybrid reporter cell lines (HeLa). Put plainly: MTT cell viability run in parallel with the Tat-hybrid assay. The following applies: Table 6; at 50,000 nM. The method, then:
(§1) Cells were counted and plated into white 384-well or 96-well cell-culture treated assay plates and compounds were added. After 48 hours, the cells were prepared for luminescence assays that were performed on a plate reader (Tecan Evolution or MD Analyst). The cytotoxicity of each compound was determined in parallel via MTT-based cell viability assays.
(§2) Tat hybrid reporter assay. […] Previously characterized thienopyridines and diaminoacridine were used as controls. Cells were counted and plated into white 384-well cell-culture treated assay plates and compounds were added. After 48 hours, the cells were prepared for lumincescence assays that were performed on a plate reader (Tecan Evolution or MD Analyst). The cytotoxicity of each compound was determined in parallel via MTT-based cell viability assays. […]

Assay in series [3]: as above
Conditions: human, Tat-hybrid reporter cell lines (HeLa); for EC50 at 48 h: Table 6, second 'EC50' entry of the cell, values D/E; for CC50 at 48 h: Table 5, read-out: Tat hybrid TC50. The method, then: as §1, §2

Where [4] appears, read: Human immunodeficiency virus 1, read-out: U1 cell IC50 (nM).
Where [5] appears, read: Human immunodeficiency virus 1, Table 2, read-out: U1 cell IC50.

As usually defined, the IC50 is the midpoint of a concentration-inhibition curve. `NC(=O)c1sc2cncc(N3CCC(C(N)=O)CC3)c2c1N` [Compound 2c, 1-{3-amino-2-carbamoylthieno[2,3-c]pyridin-4-yl}piperidine-4-carboxamide]: the IC50 in series [1] (setting [4]) lay within 100 to 500 nM.
As a reminder, the EC50 is the concentration at which the effect is half-maximal. High values mean a need for much substance, low ones an effect from little substance. `COC(=O)c1sc2nccc(N(C)C)c2c1N`: the “Tat hybrid cell viability at 50,000 nM” value in series [2] was “X (X = >60%)”. The concentration for a half-maximal effect (EC50) at 48 h in series [3] is less than 40 µM.
Taken in the same sequence, the figures for `NC(=O)c1sc2ncccc2c1N` were “Y (Y = 30-60%)” and greater than 40 µM.
For `Cc1cc(C)c2c(N)c(C(=O)O)sc2n1`, the “Tat hybrid cell viability at 50,000 nM” value in series [2] is “X (X = >60%)”. This molecule gave a concentration for a half-maximal effect (EC50) at 48 h in series [3] greater than 40 µM.
Take `N#Cc1ccccc1-c1cncc2sc(C(N)=O)cc12` [Compound 4d, 4-(2-cyanophenyl)thieno[2,3-c]pyridine-2-carboxamide]: in series [1] (setting [5]), the IC50 is greater than 500 nM.
As to `NC(=O)c1sc2cncc(-c3ccc4c(c3)OCO4)c2c1N` [Compound 3f, 3-amino-4-(2H-1,3-benzodioxol-5-yl)thieno[2,3-c]pyridine-2-carboxamide], the IC50 in series [1] (setting [5]) fell in the range of 100 to 500 nM.
For `NC(=O)c1cc2c(-c3ccc4c(c3)OCO4)cncc2s1` [Compound 4f, 4-(2H-1,3-benzodioxol-5-yl)thieno[2,3-c]pyridine-2-carboxamide], the IC50 in series [1] (setting [5]) was less than 100 nM.
For `CN(C)c1ccnc2sc(C(N)=O)c(N)c12` [Compound 1f, 3-amino-4-(dimethylamino)thieno[2,3-b]pyridine-2-carboxamide], the IC50 in series [1] (setting [4]) was greater than 500 nM.
On to `Cc1cc(C(F)F)nc2sc(C(N)=O)c(N)c12`, for which, in series [2], the “Tat hybrid cell viability at 50,000 nM” value is listed as “X (X = >60%)”. Besides, the concentration giving a half-maximal response (EC50) at 48 h in series [3] was greater than 40 µM.
Taken in the same sequence, the figures for `COC(=O)c1sc2nc(C)cc(C)c2c1N` were “X (X = >60%)” and greater than 40 µM.
As to `NC(=O)c1sc2cncc(N3CCC(Oc4ccccc4)CC3)c2c1N` [Compound 2j, 3-amino-4-(4-phenoxypiperidin-1-yl)thieno[2,3-c]pyridine-2-carboxamide], the half-inhibitory concentration (IC50) in series [1] (setting [4]) is less than 100 nM.
For `N#Cc1ccc(-c2cncc3sc(C(N)=O)cc23)cc1F` [Compound 4c, 4-(4-cyano-3-fluorophenyl)thieno[2,3-c]pyridine-2-carboxamide], the IC50 in series [1] (setting [5]) is 100 to 500 nM.
As for `CC(C)c1ccc2nc3sc(C(N)=O)c(N)c3cc2c1`, the “Tat hybrid cell viability at 50,000 nM” value in series [2] was “X (X = >60%)”. Also, the concentration for a half-maximal effect (EC50) at 48 h in series [3] is less than 40 µM.
On to `NC(=O)c1sc2nc(-c3cccnc3)ccc2c1N`, for which, in series [2], the “Tat hybrid cell viability at 50,000 nM” value was “X (X = >60%)”. In addition, in series [3], the half-maximal effective concentration (EC50) at 48 h is less than 40 µM.
On the same counts, the results for `COc1ccc(-c2cc(C3CC3)nc3sc(C(N)=O)c(N)c23)cc1` are “X (X = >60%)” and greater than 40 µM.
On to `CC(=O)c1sc2nc(C)cc(C)c2c1N`, for which, in series [2], the “Tat hybrid cell viability at 50,000 nM” value is listed as “Y (Y = 30-60%)”. The same molecule had a concentration for a half-maximal effect (EC50) at 48 h in series [3] greater than 40 µM.
As for `CN(C)C(=O)c1sc2ncccc2c1N`, the “Tat hybrid cell viability at 50,000 nM” value in series [2] is “X (X = >60%)”. The half-maximal effective concentration (EC50) at 48 h in series [3] is less than 40 µM.
Turning to `Cc1ccnc2sc(C(N)=O)c(N)c12`, the “Tat hybrid cell viability at 50,000 nM” value in series [2] is on record as “X (X = >60%)”. This molecule showed a concentration for a half-maximal effect (EC50) at 48 h in series [3] of less than 40 µM.
Consider `Cc1nc2sc(C(N)=O)c(N)c2c(C)c1C`, for which the “Tat hybrid cell viability at 50,000 nM” value in series [2] is “X (X = >60%)”. In series [3], the EC50 at 48 h was greater than 40 µM.
For `NC(=O)c1sc2cncc(N3CCN(c4ccccc4O)CC3)c2c1N`, the CC50 at 48 h in series [3] was less than 40 µM.
With `Cc1cc(C(F)(F)F)nc2sc(C(N)=O)c(N)c12`, the “Tat hybrid cell viability at 50,000 nM” value in series [2] is reported as “Y (Y = 30-60%)”. Also, the EC50 at 48 h in series [3] was greater than 40 µM.
For the molecule `Cc1ccc(C(=O)N2CCN(c3cncc4sc(C(N)=O)c(N)c34)CC2)cn1`, the CC50 at 48 h in series [3] is less than 40 µM.
For the molecule `NC(=O)c1sc2cncc(-c3cccc(-c4ccccc4)c3)c2c1N`, the CC50 at 48 h in series [3] was less than 40 µM.
The same measure, in the same setting: next, `NC(=O)c1sc2cncc(N3CCOCC3)c2c1N`: less than 40 µM.
Turning to `NC(=O)c1cccc(-c2cncc3sc(C(N)=O)c(N)c23)c1`, in series [3], the CC50 at 48 h is less than 40 µM.
Turning to `Cn1cc(CC(=O)N2CCN(c3cncc4sc(C(N)=O)c(N)c34)CC2)c2ccccc21`, the CC50 at 48 h in series [3] was less than 40 µM.
